pIC50: −log10 of the molar value. ≈ marks a conversion by molar mass, not a printed value.
Key:
[1] = tested on: Nakaseomyces glabratus; experiment: Synergistic antifungal activity against Candida glabrata assessed as fractional inhibitory concentration index in presence of amphotericin incubated for 18 hrs by checkerboard assay; format: functional
[2] = tested on: Nakaseomyces glabratus; experiment: Synergistic antifungal activity against Candida glabrata assessed as fractional inhibitory concentration index in presence of fluconazole incubated for 18 hrs by checkerboard assay; format: functional
[3] = tested on: Nakaseomyces glabratus; experiment: Synergistic antifungal activity against Candida glabrata assessed as fractional inhibitory concentration index in presence of voriconazole incubated for 18 hrs by checkerboard assay; format: functional
[4] = tested on: Staphylococcus aureus; experiment: Antibacterial activity against Staphylococcus aureus assessed as bacterial growth inhibition incubated for 24 hrs; format: functional
[5] = tested on: Escherichia coli; experiment: Antibacterial activity against Escherichia coli assessed as bacterial growth inhibition incubated for 18 to 24 hrs by broth microdilution assay; format: functional; conditions: time 18-24 hrs
[6] = tested on: Staphylococcus aureus; experiment: Antibacterial activity against Staphylococcus aureus assessed as bacterial growth inhibition incubated for 18 to 24 hrs by broth microdilution assay; format: functional; conditions: time 18-24 hrs
[7] = tested on: Escherichia coli; experiment: Antibacterial activity against Escherichia coli assessed as bacterial growth inhibition incubated for 24 hrs; format: functional
[8] = tested on: Mycobacterium tuberculosis; experiment: Anti-mycobacterial activity against Mycobacterium tuberculosis H37Rv ATCC 27294 assessed as bacterial growth inhibition incubated for 7 days by resazurin dye based assay; format: functional; conditions: H37Rv ATCC 27294, 168 h, time 7 day
[9] = tested on: Staphylococcus aureus; experiment: Antibacterial activity against methicillin-resistant Staphylococcus aureus ATCC 33591 assessed as bacterial growth inhibition by CLSI based broth microdilution method; format: functional
[10] = tested on: Mycobacterium tuberculosis; experiment: Anti-mycobacterial activity against Mycobacterium tuberculosis H37Rv assessed as bacterial growth inhibition incubated for 7 days by REMA assay; format: functional; conditions: 168 h, time 7 day
[11] = tested on: Mycobacterium tuberculosis; experiment: Anti-mycobacterial activity against Mycobacterium tuberculosis H37Rv ATCC […] assessed as bacterial growth inhibition by alamar blue assay; format: functional
[12] = tested on: Plasmodium falciparum; experiment: Antiplasmodial activity against Plasmodium falciparum; format: functional, organism-based
[13] = tested on: Mycobacterium tuberculosis; experiment: Potentiation of isoniazid-induced antimycobacterial activity against Mycobacterium tuberculosis H37Rv assessed as reduction in isoniazid MIC at 125 uM incubated for 48 hrs by alamar blue staining based analysis; format: functional
[14] = tested on: Mycobacterium tuberculosis; experiment: Potentiation of isoniazid-induced antimycobacterial activity against Mycobacterium tuberculosis H37Rv assessed as reduction in isoniazid MIC at 250 uM incubated for 48 hrs by alamar blue staining based analysis; format: functional
[15] = Inhibition of Mycobacterium smegmatis biofilm fromation incubated for 48 hrs by crystal violet staining based analysis; format: functional, Mycolicibacterium smegmatis
[16] = tested on: Staphylococcus aureus; experiment: Potentiation of ethidium bromide-induced antibacterial activity against Staphylococcus aureus 1199B overexpressing NorA efflux pump assessed as fold reduction in ethidium bromide MIC by microdilution method; format: functional
[17] = tested on: Staphylococcus aureus; experiment: Potentiation of Norfloxacin-induced antibacterial activity against Staphylococcus aureus 1199B overexpressing NorA efflux pump assessed as fold reduction in norfloxacin MIC by microdilution method; format: functional

## N=C(N)NC(=N)NCCc1ccccc1 [PHENFORMIN]
[1]
  fractional inhibitory concentration index (FICI): 0.5
[2]
  fractional inhibitory concentration index (FICI): 0.5
[3]
  fractional inhibitory concentration index (FICI): 0.5

## Cl.N=C(N)NCCCNC(=O)C(=O)c1cc(Cl)ccc1NC(=O)c1ccc2ccccc2c1
[4]
  MIC: 8 µg/mL

## N=C(N)NCCNC(=O)[C@H](Cc1c[nH]c2ccccc12)NC(=O)c1cc(Br)ccc1NC(=O)c1ccc2ccccc2c1
[5]
  MIC: 15.6 µM (≈ 9.99 µg/mL)
[6]
  MIC: 2 µM (≈ 1.28 µg/mL)

## COC(=O)C(CCCCNC(=N)N)NC(=O)C(=O)c1cc(Br)ccc1NC(=O)c1ccc2ccccc2c1.Cl (configuration not stated)
[7]
  MIC: 19 µg/mL

## N=C(N)NCCNC(=O)c1cc2c([nH]c3ccccc32)c(-c2ccc(O)cc2)n1
[8]
  MIC: 27.8 µg/mL (≈ 71.6 µM)

## N=C(N)NCCNC(=O)[C@H](Cc1c[nH]c2ccccc12)NC(=O)c1cc(F)ccc1NC(=O)c1ccc2ccccc2c1
[6]
  MIC: 2 µM (≈ 1.16 µg/mL)

## N=C(N)NC[C@H]1OC(O[C@@H]2[C@@H](O)[C@H](O[C@H]3O[C@H](CN)[C@@H](O)[C@H](O)[C@H]3O)[C@@H](N)C[C@H]2N)[C@H](O)[C@@H](N)[C@@H]1O (some centres not stated)
[9]
  MIC: 3.12 µg/mL (≈ 5.95 µM)

## N=C(N)NC[C@H]1OC(O[C@H]2C(NC(=O)[C@H](O)CCN)C[C@H](N)[C@@H](O[C@H]3O[C@H](CN)[C@@H](O)[C@H](O)[C@H]3O)[C@@H]2O)[C@H](O)[C@@H](N)[C@@H]1O (some centres not stated)
[9]
  MIC: 3.12 µg/mL (≈ 4.99 µM)

## COc1ccc(C2C(C(C)=O)=C(C)Nc3nc(N)[nH]c(=O)c32)cc1OC (configuration not stated)
[10]
  MIC: 1.95 µg/mL (≈ 5.47 µM)

## Cc1nn(-c2ccccc2)c(Cl)c1-c1nc(N)nc2c1c(C)nn2-c1cccc(Cl)c1
[11]
  MIC: 1.2 µg/mL (≈ 2.66 µM)

## CCC/C=C\CCC[C@@H]1C2N=C(N)N[C@H]3CC[C@@H](C[C@H]1CCC)C23 (some centres not stated)
[12]
  pIC50: 5.08

## CCCCCCc1ccc(-c2c[nH]c(N)n2)cc1
[13]
  MIC: 0.039 µg/mL
[14]
  MIC: 0.039 µg/mL

## CCCCCOc1ccc(-c2nc(N)[nH]c2C(F)(F)F)cc1
[15]
  pIC50: > 5.00

## CCCCCCc1ccc(-c2nc(N)[nH]c2C(F)(F)F)cc1
[15]
  pIC50: > 5.00

## Cl.NC(N)=N/N=C/c1ccc(Cl)c(Cl)c1
[16]
  fold change (FC): <=32
[17]
  fold change (FC): <=16

## Cc1nn(-c2ccccc2)c(Cl)c1-c1nc(N)nc2c1c(C)nn2-c1ccccc1Cl
[11]
  MIC: 1.2 µg/mL (≈ 2.66 µM)

## Cc1ccc(-n2nc(C)c3c(-c4c(C)nn(-c5ccccc5)c4Cl)nc(N)nc32)cc1
[11]
  MIC: 1.2 µg/mL (≈ 2.79 µM)

— ChEMBL document CHEMBL5149974, “Antimicrobial drugs bearing guanidine moieties: A review” (Eur J Med Chem, 2021)
